From ChEMBL document CHEMBL2021890, “A new class of prolylcarboxypeptidase inhibitors, part 1: discovery and evaluation” (Bioorg Med Chem Lett, 2012)

Key:
[1] = Metabolic stability in mouse liver microsomes after 30 mins by LC/MS analysis; assay type: ADME, Microsome; conditions: read-out: Stability
[2] = Plasma protein binding in 10% mouse plasma assessed as percentage unbound; assay type: ADME, cell-free
[3] = Metabolic stability in human liver microsomes after 30 mins by LC/MS analysis; assay type: ADME, Microsome; conditions: read-out: Stability
[4] = target: T1, Lysosomal Pro-X carboxypeptidase (Mus musculus, UniProt Q7TMR0); test: Inhibition of mouse PrCP
T1 sequence (Q7TMR0 whole entry): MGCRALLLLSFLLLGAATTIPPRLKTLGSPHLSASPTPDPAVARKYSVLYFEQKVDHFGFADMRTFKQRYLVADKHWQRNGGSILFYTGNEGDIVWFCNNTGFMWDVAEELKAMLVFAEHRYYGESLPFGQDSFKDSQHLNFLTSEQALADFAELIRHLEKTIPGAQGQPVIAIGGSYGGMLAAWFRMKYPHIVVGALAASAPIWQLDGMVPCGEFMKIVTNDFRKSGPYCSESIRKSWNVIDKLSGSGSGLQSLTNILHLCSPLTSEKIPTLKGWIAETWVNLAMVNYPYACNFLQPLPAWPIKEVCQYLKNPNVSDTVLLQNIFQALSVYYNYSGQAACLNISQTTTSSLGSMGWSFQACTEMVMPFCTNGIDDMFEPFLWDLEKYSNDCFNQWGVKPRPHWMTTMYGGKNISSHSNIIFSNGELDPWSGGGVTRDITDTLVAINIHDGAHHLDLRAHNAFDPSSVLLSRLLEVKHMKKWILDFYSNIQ

[5] = Plasma protein binding in 10% human plasma assessed as percentage unbound; assay type: ADME, cell-free
[6] = Oral bioavailability in mouse at 1 mg/kg; assay type: ADME, organism-based; conditions: in vivo
[7] = Clearance in mouse at 0.5 mg/kg, iv and 1 mg/kg, po; assay type: ADME, organism-based; conditions: in vivo
[8] = Volume of distribution in mouse at 0.5 mg/kg, iv and 1 mg/kg, po; assay type: ADME, organism-based; conditions: in vivo
Mus musculus [9] = test: Dose normalized AUC in mouse at 1 mg/kg, po; assay type: ADME, organism-based; parameters: dose 1 mg/kg, route oral; conditions: in vivo
[10] = Half life in mouse at 0.5 mg/kg, iv and 1 mg/kg, po; assay type: ADME, organism-based; conditions: in vivo
Mus musculus [11] = test: Ex-vivo inhibition of PrCP in heat inactivated 100% plasma of po dosed mouse by FRET analysis; assay type: functional, organism-based
Mus musculus [12] = test: Ex-vivo inhibition of po dosed mouse PrCP in the absence of plasma by FRET analysis; assay type: functional, organism-based
Mus musculus [13] = test: Ex-vivo inhibition of PrCP in heat inactivated 25% plasma of po dosed mouse by FRET analysis; assay type: functional, organism-based

Row | SMILES | remaining at 0.5 h [1] [%] | fraction unbound [2] | remaining at 0.5 h [3] [%] | IC50 [4] [nM] | fraction unbound [5] | bioavailability [6] [%] | clearance [7] [mL/min/kg] | Vd [8] [L/kg] | AUC/dose (Mus musculus [9]) [µM·kg·h/mg] | half-life [10] [h] | Ki (Mus musculus [11]) [nM] | Ki (Mus musculus [12]) [nM] | Ki (Mus musculus [13]) [nM]
1 | Cc1nc(C2CCN(C(=O)[C@@H]3CN(C(C)(C)C)C[C@H]3c3ccc(F)cc3F)CC2)n(-c2ccc(F)c(F)c2)n1 | 47 | 0.54 | 57 | 34 | 0.7 |  |  |  |  |  |  |  | 
2 | Cc1cc(C2CCN(C(=O)[C@@H]3CN(C(C)(C)C)C[C@H]3c3ccc(F)cc3F)CC2)n(-c2ccc(Cl)c(C)c2)n1 | 18 | 0.06 | 1 | 2.9 | 0.04 | 28 | 80 | 20 | 0.1 | 3.1 |  |  | 
3 | Cc1cc(C2CCN(C(=O)[C@@H]3CN(C(C)(C)C)C[C@H]3c3ccc(F)cc3F)CC2)n(-c2ccc(C)c(Cl)c2)n1 | 1 | 0.04 | < 1 | 1.1 | 0.05 | 5.5 | 165 | 24 | 0.01 | 2.1 |  |  | 
4 | Cc1cc(C2CCN(C(=O)[C@@H]3CN(C(C)(C)C)C[C@H]3c3ccc(F)cc3F)CC2)n(-c2ccc(Cl)cc2)n1 | 37 | 0.17 | 28 | 3.5 | 0.11 | 29 | 41 | 14 | 0.24 | 3.9 |  |  | 
5 | CC(C)(C)N1C[C@@H](C(=O)N2CCC(c3nnnn3-c3ccc(Cl)cc3)CC2)[C@H](c2ccc(F)cc2F)C1 | 10 | 0.42 | 5 | 44 | 0.32 | 6.4 | 163 | 17 | 0.01 | 1.8 |  |  | 
6 | Cc1cc(C2CCN(C(=O)[C@@H]3CN(C(C)(C)C)C[C@H]3c3ccc(F)cc3F)CC2)n(-c2ccc(F)cc2)n1 |  |  |  | 30 |  |  |  |  |  |  |  |  | 
7 | Cc1cc(C2CCN(C(=O)[C@@H]3CN(C(C)(C)C)C[C@H]3c3ccc(F)cc3F)CC2)n(-c2ccc(F)cc2F)n1 |  |  |  | 12 |  | 54 | 63 | 14 | 0.26 | 2.5 | 14.5 | 5.2 | 7.5
8 | Cc1cc(C2CCN(C(=O)[C@@H]3CN(C(C)(C)C)C[C@H]3c3ccc(F)cc3F)CC2)n(-c2ccc(Cl)cc2F)n1 |  | 0.21 |  | 2 | 0.17 | 43 | 51 | 16 | 0.25 | 3.6 | 5.5 | 1.5 | 2.5
9 | Cc1cc(C2CCN(C(=O)[C@@H]3CN(C(C)(C)C)C[C@H]3c3ccc(F)cc3F)CC2)n(-c2ccc(Cl)c(F)c2)n1 |  |  |  | 4.8 |  |  |  |  |  |  | 25.1 | 3.6 | 8.9
10 | Cc1cc(C2CCN(C(=O)[C@@H]3CN(C(C)(C)C)C[C@H]3c3ccc(F)cc3F)CC2)n(-c2cc(Cl)ccc2F)n1 | 37 | 0.09 | 34 | 1.4 | 0.14 |  |  |  |  |  | 2.8 | 1.2 | 1.6
11 | Cc1nc(C2CCN(C(=O)[C@@H]3CNC[C@H]3c3ccc(F)cc3F)CC2)n(-c2ccc(Cl)c(Cl)c2)n1 | 58 |  | 59 | 49 |  |  |  |  |  |  |  |  | 
12 | Cc1cc(C2CCN(C(=O)[C@@H]3CNC[C@H]3c3ccc(F)cc3F)CC2)n(-c2ccc(Cl)c(Cl)c2)n1 |  |  |  | 15 |  |  |  |  |  |  | 164 | 19.6 | 55.7
13 | Cc1cc(C2CCN(C(=O)[C@@H]3CNC[C@H]3c3ccc(F)cc3F)CC2)n(-c2ccc(F)c(Cl)c2)n1 |  |  |  | 8 |  |  |  |  |  |  | 54.5 | 8.3 | 19.9
14 | Cc1cc(-n2nc(C3CCN(C(=O)[C@@H]4CN(C(C)(C)C)C[C@H]4c4ccc(F)cc4F)CC3)nc2C)ccc1Cl | 36 | 0.07 | 6 | 495 | 0.11 | 18 | 111 | 14 | 0.05 | 1.7 |  |  | 

Now from value to compound:

Row | remaining at 0.5 h [1] [%] | fraction unbound [2] | remaining at 0.5 h [3] [%] | IC50 [4] [nM] | fraction unbound [5] | bioavailability [6] [%] | clearance [7] [mL/min/kg] | Vd [8] [L/kg] | AUC/dose (Mus musculus [9]) [µM·kg·h/mg] | half-life [10] [h] | Ki (Mus musculus [11]) [nM] | Ki (Mus musculus [12]) [nM] | Ki (Mus musculus [13]) [nM] | SMILES
15 |  |  |  | 2.3 |  | 37 | 65 | 17 | 0.17 | 3.1 |  |  |  | Cc1cc(C2CCN(C(=O)[C@@H]3CN(C(C)(C)C)C[C@H]3c3ccc(F)cc3F)CC2)n(-c2ccc(Cl)cc2C)n1
16 |  |  |  | 13 |  |  |  |  |  |  |  |  |  | Cc1cc(C2CCN(C(=O)[C@@H]3CN(C(C)(C)C)C[C@H]3c3ccc(F)cc3F)CC2)n(-c2cccc(Cl)c2)n1
17 |  |  |  | 8.6 |  |  |  |  |  |  |  |  |  | Cc1cc(C2CCN(C(=O)[C@@H]3CN(C(C)(C)C)C[C@H]3c3ccc(F)cc3F)CC2)n(-c2cc(F)ccc2Cl)n1
18 | 82 | 0.07 | 53 | 194 | 0.12 |  |  |  |  |  |  |  |  | Cc1nc(C2CCN(C(=O)[C@@H]3CNC[C@H]3c3ccc(F)cc3F)CC2)n(-c2ccc(Cl)cc2)n1
19 | 56 |  | 58 | 30 |  |  |  |  |  |  |  |  |  | Cc1nc(C2CCN(C(=O)[C@@H]3CNC[C@H]3c3ccc(F)cc3F)CC2)n(-c2cc(Cl)ccc2Cl)n1
20 | 57 |  | 49 | 32 |  |  |  |  |  |  |  |  |  | Cc1nc(C2CCN(C(=O)[C@@H]3CNC[C@H]3c3ccc(F)cc3F)CC2)n(-c2ccc(F)c(Cl)c2)n1
21 |  | 0.05 |  | 4.4 | 0.12 | 23 | 173 | 19 | 0.04 | 1.4 | 23 | 4.2 | 8.9 | Cc1cc(C2CCN(C(=O)[C@@H]3CNC[C@H]3c3ccc(F)cc3F)CC2)n(-c2cc(Cl)ccc2Cl)n1
22 | 6 | 0.19 | 29 | 11 | 0.1 | 13 | 127 | 20 | 0.03 | 2.1 | 15 | 3 | 6 | Cc1nc(C2CCN(C(=O)[C@H]3CN(C(C)(C)C)C[C@@H]3c3ccc(F)cc3F)CC2)n(-c2ccc(Cl)c(C)c2)n1
23 | 46 | 0.49 | 35 | 26 | 0.25 | 48 | 96 | 14 | 0.16 | 1.9 |  |  |  | Cc1nc(C2CCN(C(=O)[C@@H]3CN(C(C)(C)C)C[C@H]3c3ccc(F)cc3F)CC2)n(-c2ccc(Cl)cc2)n1
